Data: US20250064874A1, “Mushroom Spore, Cannabinoid, and Specified Compositions” (priority 2023, published 2025)

Assays:
[1] = test system: shin splits, sciatica tight muscles, aching back pains, and circulation issues; test: Example 12 case report: soaking body in magnesium sulfate with or without Reishi spore powder; assay type: in vivo, human; conditions: body soaked 30 minutes in 20 gallons of hot water, 1 cup Magnesium sulfate
Procedure: The person tried soaking body in 1 cup of Magnesium sulfate with 20 gallons of hot water for 30 minutes. […] After 72 hours, the person soaked their body in 20 gallons of hot water comprising 1 cup of Magnesium sulfate in combination with 1000 mg of Reishi Mushroom Spore Powder, for 30 minutes.

[2] = isolated or synthetic CBD; cited from earlier work
[3] = test system: neuronal cultures exposed to glutamate; conditions: in vitro, isolated or synthetic CBD; cited from earlier work

Row | SMILES | improvement noticed (pain relief, sleep, mood, circulation, dexterity) [1] | difference between treated animals and placebo [2] | prevention of toxicity of glutamate [3]
1 | O=S(=O)([O-])[O-].[Mg+2] [Magnesium sulfate] | slight improvement |  | 
2 | C=C(C)[C@@H]1CCC(C)=C[C@H]1c1c(O)cc(CCCCC)cc1O [CBD, cannabidiol] |  | failed to find a difference | could be prevented to some extent
